This note sets out measurements from patent publication US11655308B2, “HM-3 fusion protein and application thereof” (TASLY BIOPHARMACEUTICALS CO., LTD., priority 2017, dated 2023).

One test relates to Rat chondrocyte. The method, then: Chondrocytes were cultured in a T75 flask for 3-4 days. When the degree of fusion reached 80%, the original culture medium was removed, and sterile PBS was added to clean the cells for 2-3 times, then a proper amount of digestive juice was added, and a fresh culture medium was added after the cells were detached. Cells were centrifuged to remove the cell sap containing the digestive juice, and a proper amount of fresh culture medium was added to be prepared into a cell suspension with appropriate concentration for cell subculture or cell experiments. Cell subculture began from generation P1 and ended till generation P5, and there were cryopreserved cells in each generation. Cells were used for the experiment when subcultured to P2-P5.
According to the inoculum size of 200 μL/well, the cell suspension with the density of 2.5*10^4/mL was inoculated onto a 96-well cell culture plate, and 3 groups were prepared in total, one for control group, and the other two groups were stimulated by hydrogen peroxide. A cell-free medium was prepared as a blank group. There were 4-5 sub-wells prepared in each group. The cell culture plate was put to an incubator for incubation for 24 hours. The culture medium was replaced to different experimental groups in the following day with a dose volume of 100 μl and incubated for 24 or 48 hours respectively.
At the end of incubation according to the experimental plan, 10 μL of 5 mg/ml MTT was added to each experimental group based upon 1/10 of the cell culture volume, so that the cells were incubated with MTT in the incubator for 4 hours. Afterwards, supernatant was carefully discarded, and 200 μL of dimethyl sulfoxide (DMSO) was added for mixing well, then the absorbance was measured on a microplate reader at a test wavelength of 570 nm. Calculating formula of relative cell activity ratio (%): a mean value of the absorbance (per well) in the experimental group/the absorbance in the control group multiplies by 100%. All experimental groups were expressed as mean±standard deviation (X±SD). The difference between each group was analyzed by Prism 7.0, and tested by one-way ANOVA. *P<0.05 means statistical difference, **P<0.01 means significant statistical difference, and […] means extremely significant statistical difference.
The experimental concentration of hydrogen peroxide ranged within 0.01, 0.1, 0.5, 1, 10 mM. In order to determine the H2O2 molding time and dosage, three molding time points at 24 hours, 48 hours and 72 hours were selected, and two detection wells were prepared in total for each dosage of hydrogen peroxide.

Another test relates to type-II CIA mice. Description: Chronic inflammation model of type-II CIA in mice. Conditions: G3 Adalimumab 8 mg/kg SC 1 time/14 d, 1 time, day 60. Type of test: in vivo, Balb/c mice. On the procedure: Experimental method: Balb/c mice were taken and immunized for the first time. The concentration of type-II bovine collagen was 4 mg/mL. On the day of the experiment (day 0), complete Freund's adjuvant (CFA) and CII solution were mixed evenly in equal volume and emulsified. Excepting for the normal control group of Balb/c mice, mice in each group were sensitized by intracutaneous injection of 50 μL emulsifier at the end of tails. 21 days later, mice were re-immunized with the same dose of emulsifier at the end of tails, and incomplete Freund's adjuvant (IFA) served as an adjuvant at this time. Redness and swelling other arthritic symptoms appeared on toe joints of mice models approximately on the 29th day of the experiment, indicating successful modeling.
Animals in the modeling group on the 30th day of the experiment were randomly divided into:
There were 12 groups in total, and there were 8 pieces of mice in remaining each group excepting for 12 pieces in G1 (normal control group) and G2 (model group).
Measurement of mice weight: mice were weighed by an electronic balance every two days.
Measurement of sole thickness: the thickness of left, right and hind soles for each mouse was measured by a vernier caliper every two days.
Measurement of ankle joint width: the width of left and right ankle joints for each mouse was measured by vernier caliper every two days.
Arthritis index (AI) score: the severity of arthritis for each mouse was evaluated by a paw joint scoring method. 0: no redness and swelling; 1: redness and swelling of little toe joints; 2: redness and swelling of toe joints and toes; 3: redness and swelling of the portion below ankle joints; 4: redness and swelling of toe joints, toes and ankle joints. Scoring was performed once every two days until the end of the experiment.
Blood was collected from the orbit and serum was separated. After mice were killed by cervical dislocation, spleen and thymus were separated and weighed to calculate a spleen coefficient, and then the spleen and thymus were fixed in formalin stationary liquid.

In test [1] the test system is mice splenic lymphocyte proliferation stimulated by ConA. The test is classed as cell-based. The conditions noted are these: for optimal (best) inhibition rate of splenic lymphocyte proliferation: ConA 5 μg/mL, 48 h, MTT, best of the tested concentrations; for inhibition rate / in vitro efficacy compared with TSL-4 control group: control: TSL-4 (P4 positive control, 12 μmol/L). On the procedure: Experimental method: mice orbit was by bloodletting to death, and immediately immersed in 75% ethanol for 5-10 min, and then the spleen was removed on a clean bench and placed in PBS. The spleen was placed on a sterile cell strainer (200 mesh) and ground with a syringe nozzle; during grinding process, PBS was added continuously; the slurry was collected and centrifuged (1000 rpm for 5 min), then cells were washed 3 times with Tris-ammonium chloride solution, and washed again with a medium, and then re-suspended in the medium. Finally, trypan blue living cell staining was performed on the cells, and the survival rate was more than 95%. The concentration of viable cells was adjusted to 2×10^6/mL. […] was added to each well of a 96-well plate, meanwhile, ConA (concanavalin to simulate splenocyte proliferation) and drugs were added to each well. Six duplicates were set in each group.
The 96-well plate was incubated for 48 h in a 5% CO2 incubator at 37° C. 5 mg/mL of MTT was added to the 96-well plate, 20 μL for each well, and then it was incubated continuously for 4 h in the incubator. The culture medium in the 96-well plate was discarded and 100 μL DMSO was added to each well and mixed gently. Absorbance was measured by a microplate reader at the wavelength of 570 nm and reference wavelength of 630 nm.
Proliferation inhibition rate (PI) was calculated according to formula:
[formula] wherein, Atest is the absorbance of dosing group, and Acontrol is the absorbance of negative control. Test results were expressed as mean±SD, and statistical T test was performed. *P<0.05 indicates significant difference, **P<0.01 indicates extremely significant difference. Based upon the results, the efficacy of the fusion protein against rheumatoid arthritis was screened.
In the P4 control group, TSL-4 fusion protein served as a control agent.

The subject of test [2] is transgenic blood vessel fluorescent zebrafish. In words: In vivo anti-angiogenesis in zebrafish (SIVs area). More on the design: area of SIVs: unit not given here. Conditions: for inhibiting effect on angiogenesis: 20 ng/tail; for inhibition rate of angiogenesis / area of SIVs: 24 h; for area of SIVs: normal control group 53193. On the procedure: Experimental method: transgenic blood vessel fluorescent zebrafish was randomly selected and put into a six-well plate with 30 fish per well, and intravenously injected HM-3 polypeptide, TSL-1 fusion protein, TSL-2 fusion protein, TSL-3 fusion protein and TSL-4 fusion protein respectively in accordance with the dosage of 20 ng/tail and 66 ng/tail; the dosage was […] in Avastin positive control and the injection volume was 20 nL/tail; the zebrafish injected 20 nL/tail of buffer solution served as a solvent control group, and the zebrafish without any treatment served as a normal control group. 10 pieces of zebrafish were randomly selected from each group after processed for 24 h to observe the intestinal vessels of the transgenic zebrafish by a fluorescence microscope, as well as to take and maintain images. Image analysis was performed by Nikon MS-Elements D 3.10 to calculate the area (S) of SIVs (subintestinal vessel, SIV). The calculation formula of angiogenesis inhibition rate was as follows: Angiogenesis inhibition rate (%)=(1−S(Test sample group)/S(Normal control group))×100%
Statistical analysis was performed by variance analysis and Dunnett's T-test and the results were expressed as Mean±SD, where p<0.05 indicates a significant difference.

Where two headings read alike, the source gives them in different places.

Regarding `OO` [H2O2, hydrogen peroxide], the MTT test value with Rat chondrocyte (0.01 mM H2O2, 24 h, 0 mM 2.35) turned out to be 2.51; with Rat chondrocyte (0.01 mM H2O2, 48 h, 0 mM 2.24) it was 2.1; in the test on Rat chondrocyte (0.01 mM H2O2, 72 h, 0 mM 1.94) it was 1.99; in the test with Rat chondrocyte (0.1 mM H2O2, 24 h, 0 mM 2.35), 2.29; in the test with Rat chondrocyte (0.1 mM H2O2, 48 h, 0 mM 2.24), 2.08; with Rat chondrocyte (0.1 mM H2O2, 72 h, 0 mM 1.94), 1.92. Further, the MTT test value in the test on Rat chondrocyte (1 mM H2O2, 24 h, 0 mM 2.35) is 1.28; with Rat chondrocyte (1 mM H2O2, 48 h, 0 mM 2.24), 1.47; with Rat chondrocyte (1 mM H2O2, 72 h, 0 mM 1.94), 0.81; in the test with Rat chondrocyte (10 mM H2O2, 24 h, 0 mM 2.35) it was 0.06; in the test with Rat chondrocyte (10 mM H2O2, 48 h, 0 mM 2.24), 0.56; with Rat chondrocyte (10 mM H2O2, 72 h, 0 mM 1.94) it was −0.07.

Consider Adalimumab [reference compound], for which the ankle width in the test with type-II CIA mice (model G2 4.83±0.20) is given as 4.23±0.08 mm. This molecule also yielded an arthritis scoring in the test on type-II CIA mice (model G2 11.5±1.7) of 7.6±0.9. Also, the paw circumference in the test with type-II CIA mice (model G2 13.62) was found to be 11.42±0.20 mm. Moreover, the weight of mice with type-II CIA mice (model G2 19.5±1.6) came out at 21.0 ± 1.5 g. In addition, the spleen weight with type-II CIA mice (model G2 114.6±14.5) was 94.6 ± 6.7 mg.

Take HM-3-(GGGGS)3-mIgG4-Fc [TSL-2]: the “optimal (best) inhibition rate of splenic lymphocyte proliferation” value in test [1] was 34.1%. Moreover, the “inhibiting effect on angiogenesis” value in test [2] is reported as “significant inhibitory effect”. In addition, the “inhibition rate of angiogenesis” value was 19% in test [2] (20 ng/tail iv) and 39% in test [2] (66 ng/tail iv). Besides, the figures for the “area of SIVs” value in test [2] (20 ng/tail iv) and in test [2] (66 ng/tail iv) were 42828 and 32374, respectively.

As to HM-3-HyFc [TSL-14], the “inhibition rate / in vitro efficacy compared with TSL-4 control group” value in test [1] is listed as “Significantly lower”.

Take HyFc-(GGGGS)3-HM-3 [TSL-16]: the “inhibition rate / in vitro efficacy compared with TSL-4 control group” value in test [1] is reported as “Significantly lower”.

B1: HM-3-(GGGGS)3-IgG2-Fc (protein)
chain: IVRRADRAAVPGGGGRGDGGGGSGGGGSGGGGSERKCCVECPPCPAPPVAGPSVFLFPPKPKDTLMISRTPEVTCVVVDVSHEDPEVQFNWYVDGVEVHNAKTKPREEQFNSTFRVVSVLTVVHQDWLNGKEYKCKVSNKGLPAPIEKTISKTKGQPREPQVYTLPPSREEMTKNQVSLTCLVKGFYPSDISVEWESNGQPENNYKTTPPMLDSDGSFFLYSKLTVDKSRWQQGNVFSCSVMHEALHNHYTQKSLSLSPGK
Consider B1, for which the “optimal (best) inhibition rate of splenic lymphocyte proliferation” value in test [1] was 39.6%. Further, in test [2], the “inhibiting effect on angiogenesis” value is “significant inhibitory effect”. Besides, in test [2] (20 ng/tail iv), the “inhibition rate of angiogenesis” value amounted to 25% and the “area of SIVs” value was determined as 39929. In test [2] (66 ng/tail iv), the “inhibition rate of angiogenesis” value is recorded as 30% and the “area of SIVs” value was 37022.
